Consider nine compounds from ChEMBL document CHEMBL3297661, “1-Substituted-5-[(3,5-dinitrobenzyl)sulfanyl]-1H-tetrazoles and their isosteric analogs: A new class of selective antitubercular agents active against drug-susceptible and multidrug-resistant mycobacteria” (Eur J Med Chem, 2014).

Converted amounts (≈) assume the structure as drawn.

Series [1] deals with Mycobacterium kansasii. Kind of series: Antimycobacterial activity against Mycobacterium kansasii CNCTC My 235/80 after 14 days by micromethod. It counts as functional. The conditions noted are these: CNCTC My 235/80, 336 h.
Series [2] has as its system Mycobacterium avium. Kind of series: Antimycobacterial activity against Mycobacterium avium CNCTC My 330/88 after 21 days by micromethod. It counts as functional. To be noted: CNCTC My 330/88, 504 h.
The nature of series [3]: Cytotoxicity against human HuH7 cells assessed as reduction in cell viability after 48 hrs by MTT assay. It counts as cell-based. To be noted: Huh-7, 48 h. On the technique in general: Tetrazolium dyes change colour on reduction, which living cells bring about.
Series [4] relates to Mycobacterium kansasii. Kind of series: Antimycobacterial activity against Mycobacterium kansasii CNCTC My 235/80 after 7 days by micromethod. It is filed as functional. To be noted: CNCTC My 235/80, 168 h.
Series [5] is described as follows: Cytotoxicity against human HepG2 cells assessed as cell viability at 30 uM after 48 hrs by MTT assay. It is filed as cell-based. To be noted: read-out: Activity.
For series [6], the system named is Mycobacterium tuberculosis. Kind of series: Antimycobacterial activity against Mycobacterium tuberculosis CNCTC My 331/88 after 21 days by micromethod. The conditions noted are these: CNCTC My 331/88, 504 h. It is filed as functional.
Series [7] relates to Mycobacterium kansasii. In words: Antimycobacterial activity against Mycobacterium kansasii CNCTC My 235/80 after 21 days by micromethod. To be noted: CNCTC My 235/80, 504 h. It is filed as functional.
In series [8] the test system is Mycobacterium avium. In words: Antimycobacterial activity against Mycobacterium avium CNCTC My 330/88 after 14 days by micromethod. It is filed as functional. To be noted: CNCTC My 330/88, 336 h.
Series [9] is described as follows: Cytotoxicity against human HuH7 cells assessed as cell viability at 30 uM after 48 hrs by MTT assay. To be noted: read-out: Activity. It is filed as cell-based, Huh-7.
Series [10] concerns HepG2. Kind of series: Cytotoxicity against human HepG2 cells assessed as reduction in cell viability after 48 hrs by MTT assay. It counts as cell-based. The conditions noted are these: HepG2, 48 h.
Series [11] concerns Mycobacterium kansasii. Kind of series: Antimycobacterial activity against Mycobacterium kansasii 6509/96 after 7 days by micromethod. To be noted: 6509/96, 168 h. It is filed as functional.
The subject of series [12] is Mycobacterium kansasii. Kind of series: Antimycobacterial activity against Mycobacterium kansasii 6509/96 after 21 days by micromethod. It is filed as functional. The conditions noted are these: 6509/96, 504 h.
The nature of series [13]: Cytotoxicity against MDCK2 cells assessed as cell viability at 30 uM after 48 hrs by MTT assay. To be noted: dog, read-out: Activity. It counts as cell-based, Canis lupus familiaris, MDCK-II.
Series [14] is described as follows: Cytotoxicity against human HeLa cells assessed as cell viability at 30 uM after 48 hrs by MTT assay. It counts as cell-based. To be noted: read-out: Activity.
A short description of series [15]: Cytotoxicity against MDCK2 cells assessed as reduction in cell viability after 48 hrs by MTT assay. It is filed as cell-based. The conditions noted are these: Canis lupus familiaris, MDCK-II.
Series [16] deals with Mycobacterium kansasii. Kind of series: Antimycobacterial activity against Mycobacterium kansasii 6509/96 after 14 days by micromethod. It counts as functional. To be noted: 6509/96, 336 h.
The subject of series [17] is Mycobacterium tuberculosis. In words: Antimycobacterial activity against Mycobacterium tuberculosis CNCTC My 331/88 after 14 days by micromethod. The conditions noted are these: CNCTC My 331/88, 336 h. It counts as functional.

The MIC is the smallest concentration in the dilution series that meets the test's criterion for growth inhibition. A higher MIC goes with weaker potency. By IC50 is commonly meant the concentration that gives 50% inhibition. For the compound `COc1ccc(-n2nnnc2SCc2cc([N+](=O)[O-])cc([N+](=O)[O-])c2)cc1`, the MIC in series [1] came to 4 µM (≈ 1.55 µg/mL); in [2] it was 32 µM (≈ 12.4 µg/mL); in series [4], 1 µM (≈ 0.388 µg/mL); in series [6], 4 µM (≈ 1.55 µg/mL); in [7], 4 µM (≈ 1.55 µg/mL); in [8], 16 µM (≈ 6.21 µg/mL). In addition, the MIC is 1 µM (≈ 0.388 µg/mL) in [11], 2 µM (≈ 0.777 µg/mL) in series [12], 1 µM (≈ 0.388 µg/mL) in series [16] and 2 µM (≈ 0.777 µg/mL) in series [17]. The IC50 in series [3], in [10] and in series [15] was > 30 µM throughout. Further, the viability at 48 h, 30 µM came to 90% in series [5], 86% in series [9], 123% in series [13] and 39% in series [14].

As to `O=[N+]([O-])c1ccc(CSc2nnnn2-c2ccccc2)c([N+](=O)[O-])c1`, the MIC in series [1] came to 62 µM (≈ 22.2 µg/mL); in [2] it was 62 µM (≈ 22.2 µg/mL); in [4], 16 µM (≈ 5.73 µg/mL); in [6], 16 µM (≈ 5.73 µg/mL); in series [7], 62 µM (≈ 22.2 µg/mL); in series [8] it was 32 µM (≈ 11.5 µg/mL). Moreover, the MIC was 8 µM (≈ 2.87 µg/mL) in series [11], 32 µM (≈ 11.5 µg/mL) in [12], 32 µM (≈ 11.5 µg/mL) in [16] and 8 µM (≈ 2.87 µg/mL) in series [17].

For `CCCCCCCCCCCCCCCCSCc1cc([N+](=O)[O-])cc([N+](=O)[O-])c1`, the minimal inhibitory concentration (MIC) in series [1] worked out at 500 µM (≈ 219 µg/mL); in series [2], 1000 µM (≈ 439 µg/mL); in series [4], 500 µM (≈ 219 µg/mL); in [6], 1000 µM (≈ 439 µg/mL); in [7], 500 µM (≈ 219 µg/mL); in series [8], 1000 µM (≈ 439 µg/mL). Further, the MIC in series [11] is 500 µM (≈ 219 µg/mL); in series [12], 500 µM (≈ 219 µg/mL); in [16], 500 µM (≈ 219 µg/mL); in series [17] it was 1000 µM (≈ 439 µg/mL).

On to `CCCCCCn1nnnc1SCc1cc([N+](=O)[O-])cc([N+](=O)[O-])c1`, for which the MIC is 4 µM (≈ 1.47 µg/mL) in series [1]; 62 µM (≈ 22.7 µg/mL) in [2]; 2 µM (≈ 0.733 µg/mL) in [4]; 2 µM (≈ 0.733 µg/mL) in series [6]; 8 µM (≈ 2.93 µg/mL) in [7]; 32 µM (≈ 11.7 µg/mL) in series [8]. The MIC in series [11] is 2 µM (≈ 0.733 µg/mL); in series [12] it was 8 µM (≈ 2.93 µg/mL); in series [16], 4 µM (≈ 1.47 µg/mL); in series [17], 1 µM (≈ 0.366 µg/mL).

As to `O=[N+]([O-])c1cc(C[S+]([O-])c2nnnn2-c2ccccc2)cc([N+](=O)[O-])c1` (configuration not stated), the MIC in [1] came to 250 µM (≈ 93.6 µg/mL); in series [2], 125 µM (≈ 46.8 µg/mL); in [4], 62 µM (≈ 23.2 µg/mL); in series [6], 62 µM (≈ 23.2 µg/mL); in series [7] it was 250 µM (≈ 93.6 µg/mL); in series [8], 125 µM (≈ 46.8 µg/mL). The MIC is 125 µM (≈ 46.8 µg/mL) in series [11], 250 µM (≈ 93.6 µg/mL) in series [12], 250 µM (≈ 93.6 µg/mL) in series [16] and 62 µM (≈ 23.2 µg/mL) in series [17].

For `Cn1nnnc1SCc1cc([N+](=O)[O-])cc([N+](=O)[O-])c1`, the MIC turned out to be 16 µM (≈ 4.74 µg/mL) in [1]; 1000 µM (≈ 296 µg/mL) in series [2]; 4 µM (≈ 1.19 µg/mL) in series [4]; 8 µM (≈ 2.37 µg/mL) in series [6]; 32 µM (≈ 9.48 µg/mL) in series [7]; 500 µM (≈ 148 µg/mL) in series [8]. The MIC in series [11] amounted to 16 µM (≈ 4.74 µg/mL); in [12] it was 32 µM (≈ 9.48 µg/mL); in series [16] it was 32 µM (≈ 9.48 µg/mL); in series [17], 4 µM (≈ 1.19 µg/mL).

For `O=[N+]([O-])c1cc(C[Se]c2nnnn2-c2ccccc2)cc([N+](=O)[O-])c1`, the MIC was found to be 8 µM (≈ 3.24 µg/mL) in series [1]; 32 µM (≈ 13 µg/mL) in [2]; 8 µM (≈ 3.24 µg/mL) in series [4]; 8 µM (≈ 3.24 µg/mL) in series [6]; 16 µM (≈ 6.48 µg/mL) in [7]; 32 µM (≈ 13 µg/mL) in series [8]. Also, the minimal inhibitory concentration (MIC) came out at 16 µM (≈ 6.48 µg/mL) in series [11], 32 µM (≈ 13 µg/mL) in series [12], 16 µM (≈ 6.48 µg/mL) in series [16] and 8 µM (≈ 3.24 µg/mL) in series [17].

For `O=[N+]([O-])c1cc(CSc2ccccc2)cc([N+](=O)[O-])c1`, the MIC in series [1], in series [2], in series [4], in series [6], in series [7] and in series [8] was 250 µM (≈ 72.6 µg/mL) throughout. Besides, the MIC was 500 µM (≈ 145 µg/mL) in series [11], 500 µM (≈ 145 µg/mL) in [12], 500 µM (≈ 145 µg/mL) in [16] and 250 µM (≈ 72.6 µg/mL) in series [17].

As to `c1ccc(C[Se]c2nnnn2-c2ccccc2)cc1`, the MIC in series [1] worked out at 8 µM (≈ 2.52 µg/mL); in [2], 125 µM (≈ 39.4 µg/mL); in series [4], 2 µM (≈ 0.63 µg/mL); in series [6], 125 µM (≈ 39.4 µg/mL); in series [7], 16 µM (≈ 5.04 µg/mL); in series [8], 62 µM (≈ 19.5 µg/mL). The MIC in series [11] is 32 µM (≈ 10.1 µg/mL); in series [12] it was 250 µM (≈ 78.8 µg/mL); in [16], 125 µM (≈ 39.4 µg/mL); in series [17], 125 µM (≈ 39.4 µg/mL).
